From ChEMBL document CHEMBL1201862, “PubChem BioAssay data set” (2004)
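Grown in 96-well plates, cells were treated for 48 hours with each compound at five concentrations. Insufficient inhibition: endpoint recorded as highest concentration tested. GI50: concentration for 50% inhibition of growth.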 Calls of active or inactive are those of the source. No stated cut-off is given here; in the data, active = GI50 up to about 1.1 µM and inactive = higher.

Tests used:
Experiment in all cases: DTP human tumour cell line panel, 48 h
SF-295 = tested on: SF-295
SNB-75 = tested on: SNB-75
UO-31 = tested on: UO-31
PC-3 = tested on: PC-3
SW-620 = tested on: SW-620
A498 = tested on: A498
T47D = tested on: T47D
COLO 205 = tested on: COLO 205
MCF7 = tested on: MCF7
NCI-H23 = tested on: NCI-H23
HOP-92 = tested on: HOP-92
LOX IMVI = tested on: LOX IMVI
SK-MEL-5 = tested on: SK-MEL-5
SF-268 = tested on: SF-268
A549 = tested on: A549
MDA-MB-435 = tested on: MDA-MB-435
IGROV-1 = tested on: IGROV-1
SK-MEL-2 = tested on: SK-MEL-2
OVCAR-5 = tested on: OVCAR-5
HL-60 = tested on: HL-60

CCOC(=O)C(COS(C)(=O)=O)(COS(C)(=O)=O)C(=O)OCC
GI50 (SF-295): > 100 µM (inactive)
GI50 (SNB-75): > 100 µM (inactive)
GI50 (UO-31): > 100 µM (inactive)
GI50 (PC-3): > 100 µM (inactive)
GI50 (SW-620): > 100 µM (inactive)
GI50 (A498): 11.1 µM (inactive)
GI50 (T47D): > 100 µM (inactive)
GI50 (COLO 205): > 100 µM (inactive)
GI50 (MCF7): > 100 µM (inactive)
GI50 (NCI-H23): > 100 µM (inactive)
GI50 (HOP-92): > 100 µM (inactive)
GI50 (LOX IMVI): > 100 µM (inactive)
GI50 (SK-MEL-5): > 100 µM (inactive)
GI50 (SF-268): > 100 µM (inactive)
GI50 (A549): > 100 µM (inactive)
GI50 (MDA-MB-435): > 100 µM (inactive)

CNc1cc(Cl)ccc1C(=O)N1CCC[C@H]1CO
GI50 (SF-295): > 100 µM (inactive)
GI50 (IGROV-1): > 100 µM (inactive)
GI50 (SNB-75): 53.5 µM (inactive)
GI50 (UO-31): > 100 µM (inactive)
GI50 (PC-3): > 100 µM (inactive)
GI50 (SK-MEL-2): > 100 µM (inactive)
GI50 (SW-620): > 100 µM (inactive)
GI50 (A498): > 100 µM (inactive)
GI50 (T47D): > 100 µM (inactive)
GI50 (COLO 205): > 100 µM (inactive)
GI50 (OVCAR-5): > 100 µM (inactive)
GI50 (MCF7): > 100 µM (inactive)
GI50 (NCI-H23): > 100 µM (inactive)
GI50 (LOX IMVI): > 100 µM (inactive)
GI50 (SK-MEL-5): 74.1 µM (inactive)
GI50 (SF-268): > 100 µM (inactive)
GI50 (A549): > 100 µM (inactive)
GI50 (HL-60): 81.7 µM (inactive)
GI50 (MDA-MB-435): > 100 µM (inactive)

O=C(/C=C/c1ccc2c(c1)OCO2)CC(=O)/C=C/c1ccc2c(c1)OCO2
GI50 (SF-295): > 100 µM (inactive)
GI50 (IGROV-1): 23.5 µM (inactive)
GI50 (SNB-75): > 100 µM (inactive)
GI50 (UO-31): > 100 µM (inactive)
GI50 (PC-3): 86.3 µM (inactive)
GI50 (SK-MEL-2): > 100 µM (inactive)
GI50 (SW-620): > 100 µM (inactive)
GI50 (T47D): > 100 µM (inactive)
GI50 (COLO 205): > 100 µM (inactive)
GI50 (OVCAR-5): > 100 µM (inactive)
GI50 (MCF7): 77.4 µM (inactive)
GI50 (NCI-H23): 19.6 µM (inactive)
GI50 (LOX IMVI): 12.1 µM (inactive)
GI50 (SK-MEL-5): > 100 µM (inactive)
GI50 (SF-268): > 10 µM (inactive)
GI50 (A549): > 100 µM (inactive)
GI50 (HL-60): 41.7 µM (inactive)
GI50 (MDA-MB-435): > 100 µM (inactive)

Cc1c2c(n(CCc3ccc(Cl)cc3)c1C)NN=C(C#N)S2(=O)=O
GI50 (IGROV-1): > 100 µM (inactive)
GI50 (SNB-75): > 100 µM (inactive)
GI50 (UO-31): > 100 µM (inactive)
GI50 (PC-3): > 100 µM (inactive)
GI50 (SK-MEL-2): > 100 µM (inactive)
GI50 (SW-620): > 100 µM (inactive)
GI50 (T47D): > 100 µM (inactive)
GI50 (COLO 205): > 100 µM (inactive)
GI50 (OVCAR-5): > 100 µM (inactive)
GI50 (MCF7): > 100 µM (inactive)
GI50 (NCI-H23): > 100 µM (inactive)
GI50 (LOX IMVI): > 100 µM (inactive)
GI50 (SK-MEL-5): > 100 µM (inactive)
GI50 (SF-268): 48.5 µM (inactive)
GI50 (A549): > 100 µM (inactive)
GI50 (MDA-MB-435): 42.2 µM (inactive)

COc1ccc2[nH]c3c(C)c4cnccc4c(C)c3c2c1
GI50 (SF-295): 3.3 µM (inactive)
GI50 (IGROV-1): 3.85 µM (inactive)
GI50 (SNB-75): 2.25 µM (inactive)
GI50 (PC-3): 2.99 µM (inactive)
GI50 (SK-MEL-2): 5.14 µM (inactive)
GI50 (SW-620): 0.964 µM (active)
GI50 (T47D): > 10 µM (inactive)
GI50 (COLO 205): 1.58 µM (inactive)
GI50 (OVCAR-5): 3.11 µM (inactive)
GI50 (MCF7): 1.52 µM (inactive)
GI50 (NCI-H23): 6.25 µM (inactive)
GI50 (HOP-92): 5.4 µM (inactive)
GI50 (SK-MEL-5): > 10 µM (inactive)
GI50 (SF-268): 2.75 µM (inactive)
GI50 (A549): 1.85 µM (inactive)
GI50 (HL-60): 2.28 µM (inactive)
GI50 (MDA-MB-435): 1.48 µM (inactive)

CCN(CC)Cc1ccc(C(=S)Nc2ccc(Cl)cc2)s1
GI50 (SF-295): 9.91 µM (inactive)
GI50 (IGROV-1): 11.4 µM (inactive)
GI50 (UO-31): 11.4 µM (inactive)
GI50 (PC-3): 13.2 µM (inactive)
GI50 (SK-MEL-2): 15.1 µM (inactive)
GI50 (SW-620): 12.2 µM (inactive)
GI50 (A498): 12 µM (inactive)
GI50 (T47D): 11.2 µM (inactive)
GI50 (COLO 205): 1.99 µM (inactive)
GI50 (OVCAR-5): 11.3 µM (inactive)
GI50 (MCF7): 11 µM (inactive)
GI50 (NCI-H23): 2.34 µM (inactive)
GI50 (LOX IMVI): 4.82 µM (inactive)
GI50 (SK-MEL-5): 4.24 µM (inactive)
GI50 (SF-268): 11.3 µM (inactive)
GI50 (A549): 11.2 µM (inactive)
GI50 (HL-60): 2.75 µM (inactive)
GI50 (MDA-MB-435): 9.91 µM (inactive)

N/N=C(\N)SCc1ccc(N=C=S)cc1
GI50 (SF-295): > 100 µM (inactive)
GI50 (IGROV-1): > 100 µM (inactive)
GI50 (SNB-75): > 100 µM (inactive)
GI50 (UO-31): > 100 µM (inactive)
GI50 (PC-3): > 100 µM (inactive)
GI50 (SK-MEL-2): > 100 µM (inactive)
GI50 (SW-620): > 100 µM (inactive)
GI50 (A498): > 100 µM (inactive)
GI50 (T47D): > 100 µM (inactive)
GI50 (COLO 205): > 100 µM (inactive)
GI50 (OVCAR-5): > 100 µM (inactive)
GI50 (NCI-H23): > 100 µM (inactive)
GI50 (HOP-92): > 100 µM (inactive)
GI50 (LOX IMVI): > 100 µM (inactive)
GI50 (SK-MEL-5): > 100 µM (inactive)
GI50 (SF-268): > 100 µM (inactive)
GI50 (A549): > 100 µM (inactive)
GI50 (HL-60): > 100 µM (inactive)
GI50 (MDA-MB-435): > 100 µM (inactive)

CNC(=O)CCNC(=O)CCC(=O)N(C)C
GI50 (SF-295): > 100 µM (inactive)
GI50 (UO-31): > 100 µM (inactive)
GI50 (PC-3): > 100 µM (inactive)
GI50 (SK-MEL-2): > 100 µM (inactive)
GI50 (SW-620): > 100 µM (inactive)
GI50 (A498): > 100 µM (inactive)
GI50 (T47D): > 100 µM (inactive)
GI50 (COLO 205): > 100 µM (inactive)
GI50 (OVCAR-5): > 100 µM (inactive)
GI50 (MCF7): > 100 µM (inactive)
GI50 (NCI-H23): > 100 µM (inactive)
GI50 (SK-MEL-5): > 100 µM (inactive)
GI50 (SF-268): > 100 µM (inactive)
GI50 (A549): > 100 µM (inactive)
GI50 (MDA-MB-435): > 100 µM (inactive)

c1ccc(/N=C2\C(=N/c3ccccc3)N(C3CCCCC3)/C(=N\C3CCCCC3)N2c2ccccc2)cc1
GI50 (IGROV-1): > 100 µM (inactive)
GI50 (SNB-75): > 100 µM (inactive)
GI50 (UO-31): > 100 µM (inactive)
GI50 (PC-3): > 100 µM (inactive)
GI50 (SK-MEL-2): > 100 µM (inactive)
GI50 (SW-620): > 100 µM (inactive)
GI50 (A498): > 100 µM (inactive)
GI50 (T47D): 49.9 µM (inactive)
GI50 (COLO 205): > 100 µM (inactive)
GI50 (OVCAR-5): > 100 µM (inactive)
GI50 (MCF7): > 100 µM (inactive)
GI50 (NCI-H23): > 100 µM (inactive)
GI50 (HOP-92): > 100 µM (inactive)
GI50 (SK-MEL-5): > 100 µM (inactive)
GI50 (A549): > 100 µM (inactive)
GI50 (HL-60): > 100 µM (inactive)

CC1=[N+]([O-])C(C)(C)N(N=O)C1(C)C
GI50 (SF-295): > 10 µM (inactive)
GI50 (UO-31): > 10 µM (inactive)
GI50 (PC-3): > 10 µM (inactive)
GI50 (SK-MEL-2): > 10 µM (inactive)
GI50 (SW-620): > 10 µM (inactive)
GI50 (T47D): > 10 µM (inactive)
GI50 (COLO 205): > 10 µM (inactive)
GI50 (OVCAR-5): > 10 µM (inactive)
GI50 (MCF7): > 10 µM (inactive)
GI50 (NCI-H23): > 10 µM (inactive)
GI50 (HOP-92): > 10 µM (inactive)
GI50 (SF-268): > 10 µM (inactive)
GI50 (A549): > 10 µM (inactive)
GI50 (HL-60): > 10 µM (inactive)
GI50 (MDA-MB-435): > 10 µM (inactive)

CCCCc1ccc(Nc2nc(N)c3ncn(COCCO)c3n2)cc1
GI50 (SF-295): 19.8 µM (inactive)
GI50 (IGROV-1): 18 µM (inactive)
GI50 (SNB-75): 32.6 µM (inactive)
GI50 (UO-31): 29.9 µM (inactive)
GI50 (SK-MEL-2): 17 µM (inactive)
GI50 (SW-620): 26.1 µM (inactive)
GI50 (A498): 28.2 µM (inactive)
GI50 (T47D): 24.4 µM (inactive)
GI50 (COLO 205): 17.2 µM (inactive)
GI50 (OVCAR-5): 38.8 µM (inactive)
GI50 (MCF7): 37.4 µM (inactive)
GI50 (NCI-H23): 21.3 µM (inactive)
GI50 (HOP-92): 18.2 µM (inactive)
GI50 (LOX IMVI): 18.9 µM (inactive)
GI50 (SK-MEL-5): 18 µM (inactive)
GI50 (SF-268): 33 µM (inactive)
GI50 (A549): 44.3 µM (inactive)
GI50 (HL-60): 36.3 µM (inactive)
GI50 (MDA-MB-435): 22.1 µM (inactive)

CCc1nc(N)nc(N)c1-c1ccc(Cl)c([N+]#N)c1
GI50 (SF-295): 39 µM (inactive)
GI50 (IGROV-1): 6.58 µM (inactive)
GI50 (SNB-75): > 100 µM (inactive)
GI50 (UO-31): 78.3 µM (inactive)
GI50 (PC-3): 61.7 µM (inactive)
GI50 (SK-MEL-2): > 100 µM (inactive)
GI50 (SW-620): 36.5 µM (inactive)
GI50 (T47D): > 100 µM (inactive)
GI50 (COLO 205): 56 µM (inactive)
GI50 (OVCAR-5): > 100 µM (inactive)
GI50 (MCF7): > 100 µM (inactive)
GI50 (NCI-H23): 28.5 µM (inactive)
GI50 (HOP-92): > 100 µM (inactive)
GI50 (LOX IMVI): 46.5 µM (inactive)
GI50 (SK-MEL-5): 46.2 µM (inactive)
GI50 (SF-268): > 100 µM (inactive)
GI50 (A549): 20.6 µM (inactive)
GI50 (HL-60): 40.8 µM (inactive)
GI50 (MDA-MB-435): 38.7 µM (inactive)
